Assay in all cases: DTP human tumour cell line panel, 48 h
The subject of assay [1] is SN12C renal.
Assay [2] relates to NCI-H23 lung.
Assay [3] has as its system HT29 colon.
For assay [4], the system named is TK-10 renal.
For assay [5], the system named is RPMI-8226 leukemia.
Assay [6] relates to A549 NSCLC.
Assay [7] deals with SF-295 CNS.
Assay [8] has as its system SNB-75 CNS.
Assay [9] has as its system SR leukemia.

“And” between values parts separate entries of the source, which are not always exact repeats. Identical values can stand only once.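 48-hour exposure; five concentrations; linearly interpolated endpoints. GI50: concentration for 50% inhibition of growth. Definition used: TGI = concentration required for complete inhibition of growth.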

We go through 30 compounds from PubChem BioAssay (NCI).

`CCOC(=O)COc1cccc2c1C(=O)CCO2`: the total growth inhibition concentration (TGI) in assay [1], in assay [2], in assay [3], in [4], in assay [5] and in assay [6] was over 100 µM throughout. In assay [7], this compound gave a TGI of over 100 µM.
Regarding `CCOC(=O)c1ncn2c1[nH]c(=S)c1ccccc12`, the TGI in assay [1], in [8], in assay [2], in assay [3], in assay [4] and in [5] was over 100 µM in each case. In addition, the total growth inhibition concentration (TGI) in assay [6] and in assay [7] was over 100 µM each time.
With `CC1(C)COC(c2ccc(C(F)(F)F)cc2C(O)c2ccc3ccccc3c2)=N1` (stereo not given), the GI50 was over 100 µM in [1]; over 10 µM in assay [8]; over 10 µM in assay [2]; over 100 µM in assay [4]; over 10 µM in assay [6]; over 10 µM in assay [7]. In addition, the TGI in assay [1] is over 100 µM; in [8], > 10 µM and 37.9 µM; in [9], over 10 µM; in [2], over 100 µM; in assay [3] it was over 10 µM; in [4], over 100 µM. The TGI is over 100 µM in assay [5]; over 100 µM in assay [6]; > 10 µM and 42.5 µM in assay [7].
With `CC(=O)N1[C@H](C(=O)O)CS[C@H]1c1ccncc1`, the TGI in assay [1], in [8], in [9], in assay [2], in assay [3] and in [4] was over 100 µM each time. The TGI in assay [5], in assay [6] and in assay [7] was over 100 µM throughout.
As to `CC(=O)C(CN(C(C)C)C(C)C)C(c1ccccc1)c1c(O)c2ccccc2oc1=O` (stereo not given), the TGI in [1], in [8], in assay [9], in [2], in assay [3] and in assay [4] was over 100 µM in each case. In addition, the TGI in assay [5], in assay [6] and in assay [7] was over 100 µM throughout.
Regarding `Nc1ccc(C(=O)N/C(=C\c2ccc3c(c2)OCO3)c2nc3[nH]c(=S)[nH]c(=O)c3[nH]2)cc1`, the TGI in [1], in [9], in assay [2], in assay [3], in assay [4] and in [6] was over 100 µM in each case. The total growth inhibition concentration (TGI) in [7] is over 100 µM.
`CCN(CC)CC(C(=O)Nc1c(C)cccc1C)/C(C)=N\NC(=O)C[N+](C)(C)C` (stereo not given): the concentration for total growth inhibition (TGI) in assay [1], in assay [8], in [9], in assay [2], in [3] and in [4] was over 100 µM each time. In addition, the TGI in assay [5], in [6] and in [7] was over 100 µM throughout.
`FC(F)(F)c1ccc(C2SCc3nc4ccccc4n32)cc1` (stereo not given): the concentration for total growth inhibition (TGI) in assay [1], in assay [8], in [9], in assay [2], in assay [3] and in [4] was over 100 µM each time. Also, the TGI in assay [5], in assay [6] and in [7] was over 100 µM in each case.
Turning to `C/C(CCn1[nH]c(=O)ccc1=O)=N\O`, the TGI in assay [1], in assay [8], in assay [9], in [2], in assay [3] and in assay [4] was over 100 µM in each case. The TGI in assay [5], in [6] and in assay [7] was over 100 µM throughout.
Take `NC(CCc1nc(-c2ccc(Cl)cc2)cs1)C(=O)O` (stereo not given): the TGI in [1], in assay [8], in assay [9], in assay [2], in assay [3] and in [4] was over 100 µM each time. Further, the TGI in [5], in assay [6] and in assay [7] was over 100 µM each time.
Turning to `CC(C)=CCCc1c(C)ccc2c1C(=O)C(=O)C(C(C)C)=C2`, the TGI was over 22 µM in assay [1]; over 22 µM in [8]; 14.9 µM in assay [9]; 8.52 µM in [2]; over 22 µM in assay [3]; 8.81 µM in assay [4]. Also, the concentration for total growth inhibition (TGI) in assay [5] was 6.16 µM; in assay [6] it was over 22 µM; in assay [7], over 22 µM.
On to `NS(=O)(=O)c1ccccc1C(=O)N/N=C(\c1nc2ccc([N+](=O)[O-])cc2[nH]c1=O)C(O)c1ccc([N+](=O)[O-])cc1` (stereo not given), for which the TGI in [1], in assay [8], in assay [9], in assay [2], in assay [3] and in assay [4] was over 100 µM each time. Also, the TGI in assay [5], in assay [6] and in [7] was over 100 µM each time.
Take `COc1ccc2c(c1)C1(C=N2)CCN(C(C)=O)CC1`: the TGI in assay [8], in assay [2], in [3], in assay [4], in assay [5] and in assay [6] was over 100 µM throughout. Moreover, the TGI in assay [7] is over 100 µM.
On to `C=CCc1cc(OC)c2c(c1)C(O)CC(c1ccc(OC)c(OC)c1)O2` (stereo not given), for which the TGI in assay [1], in assay [8], in assay [9], in assay [2], in assay [3] and in assay [4] was over 100 µM in each case. Moreover, the TGI in assay [6] and in assay [7] was over 100 µM in each case.
With `COC(=O)[C@@]12C3=NO[C@]1(C(=O)OC)C(O[Si](C)(C)C(C)(C)C)[C@H]1OC(C)(C)O[C@H]1[C@@H]2C(OCc1ccccc1)CC3` (stereo not given in full), the TGI was over 100 µM in assay [1]; 58 µM in assay [8]; over 100 µM in assay [2]; over 100 µM in [3]; over 100 µM in assay [4]; over 100 µM in [5]. Also, the TGI in assay [6] and in [7] was over 100 µM throughout.
In the case of `O=C(O)CCSC(=O)Nc1cccc(F)c1`, the TGI in assay [1], in assay [9], in assay [2], in assay [3], in [4] and in [5] was over 100 µM each time. Besides, the TGI in assay [6] and in [7] was over 100 µM in each case.
On to `COc1cc2cnc3c4cc(OC(C)C)c(OC)cc4ccc3c2cc1OC`, for which the concentration for total growth inhibition (TGI) in assay [1], in assay [8], in assay [2], in [3], in [4] and in assay [5] was over 100 µM each time. Further, the total growth inhibition concentration (TGI) in assay [6] and in [7] was over 100 µM each time.
Turning to `COc1ccc(/C=C\c2cc(OC)c3c(c2)OCO3)c(O)c1O`, the concentration for total growth inhibition (TGI) in assay [1] was 41.4 µM; in [8], 15.5 µM; in assay [9], over 41.5 µM; in assay [2], 22.3 µM; in assay [3], 47.2 µM; in assay [4], over 86.6 µM. Moreover, the TGI in [5] is 18.2 µM; in assay [6], over 100 µM; in assay [7] it was 36.8 µM.
`O=C1C2=C(SCCS2)C(=O)c2ccccc21`: the TGI in [1] is 3.39 µM; in assay [8] it was 3.03 µM; in [9], 5.33 µM; in assay [2], 3.34 µM; in assay [3] it was 4.44 µM; in [4], 3.24 µM. In addition, the TGI was 5.35 µM in assay [5], 3.83 µM in [6] and 3.14 µM in [7].
As to `COc1ccc2nc3cc(Cl)ccc3c(Sc3ccccc3[N+](=O)[O-])c2c1`, the TGI in [1] is 75.7 µM; in assay [8], 37.3 µM; in [9] it was over 100 µM; in [2] it was over 100 µM; in [4], over 100 µM; in [6] it was over 100 µM. The compound also showed a TGI in assay [7] of over 100 µM.
Take `CC(=O)OC1COC(n2c(=S)n(-c3ccc(C)cc3)c(=O)c3ccccc32)C(OC(C)=O)C1OC(C)=O` (stereo not given): the total growth inhibition concentration (TGI) in assay [1], in assay [8], in assay [2], in [3], in [5] and in assay [6] was over 100 µM throughout. In assay [7], this compound gave a TGI of over 100 µM.
For the compound `COc1ccccc1NC(=O)CC(=O)n1nc(C)c(N=Nc2ccccc2C(=O)O)c1C`, the TGI in assay [1], in assay [8], in assay [2], in [3], in [4] and in assay [5] was over 100 µM throughout. For the same compound, the concentration for total growth inhibition (TGI) in [6] and in [7] was over 100 µM in each case.
As for `CN(CC(=O)O)S(=O)(=O)c1ccc2ccccc2c1`, the TGI in assay [1], in [8], in [2], in assay [3], in assay [4] and in [5] was over 100 µM in each case. For the same compound, the TGI in assay [6] and in assay [7] was over 100 µM throughout.
For `CC1(C)OC(=O)C(=Cc2ccc(O)cc2)C(=O)O1`, the TGI in assay [1], in assay [9], in assay [2], in [3], in assay [4] and in assay [5] was over 100 µM each time. Moreover, the TGI in [6] and in [7] was over 100 µM throughout.
On to `CCNC1C2(CCCCC2)NC(=O)C12CCCCC2` (stereo not given), for which the concentration for total growth inhibition (TGI) in [8], in [2], in assay [3], in assay [4], in [5] and in assay [6] was over 100 µM in each case. In assay [7], this compound had a TGI of over 100 µM.
Regarding `N#CC(C#N)=c1ccc(=C2NCC3CCCN23)cc1` (stereo not given), the TGI in assay [1], in [8], in assay [9], in [3], in [4] and in assay [5] was over 100 µM in each case. Also, the TGI in [6] and in assay [7] was over 100 µM each time.
For the compound `CNC(=O)c1cc(Oc2ccc3nc(NC(=O)Nc4ccc(Cl)c(C(F)(F)F)c4)sc3c2)ccn1`, the GI50 is 2.44 µM in assay [1]; 1.52 µM in assay [8]; 0.412 µM in assay [9]; 2.48 µM in assay [2]; 2.29 µM in assay [4]; 1.79 µM in assay [7]. For the same compound, the total growth inhibition concentration (TGI) in assay [1] was over 100 µM; in [8], 3.24 µM; in assay [9], 9.1 µM; in [2] it was 8.17 µM; in [4], 4.62 µM; in assay [7], 3.71 µM.
Regarding `COc1ccc(-c2cc(=O)c3ccc(O)cc3o2)c(OC)c1OC`, the TGI is over 100 µM in assay [1]; 71.4 µM in [8]; over 100 µM in assay [2]; over 100 µM in [3]; over 100 µM in assay [4]; over 100 µM in [5]. Also, the concentration for total growth inhibition (TGI) in assay [6] and in assay [7] was over 100 µM throughout.
Regarding `CC(=O)OC(C)C(=O)C1c2cccc(O)c2C(=O)c2c(O)cc(C)cc21` (stereo not given), the TGI in assay [1] was found to be 2.24 µM; in assay [8], 1.83 µM; in assay [2] it was 1.15 µM; in [3], 3.03 µM; in assay [4], 2.88 µM; in assay [5], 5.98 µM. For the same compound, the TGI turned out to be 1.11 µM in [6] and 1.19 µM in assay [7].
As to `CCOC(=O)C1=C(C)CC2C(=O)OC(=O)C2C1(C)C` (stereo not given), the TGI in [1], in assay [9], in [2], in [3], in assay [4] and in assay [5] was over 100 µM each time. Further, the TGI in assay [6] and in assay [7] was over 100 µM throughout.

For orientation: TGI means the concentration giving total growth inhibition. As usually defined, the GI50 is the concentration that inhibits growth by half.
